Experiments:
[1] = system: normal Human Adult Primary Epidermal Keratinocyte cell line; test: Keratinocyte cell viability (Trypan Blue exclusion, Example 10); details: keratinocytes, 1.0 nM DHT, 24 hours
Description: For the Keratinocyte assay, normal Human Adult Primary Epidermal Keratinocyte cell line (ATCC PCS-200-011) was maintained in EPIUFE® Medium, with 60 μM calcium (Thermo MEPISOOCA) supplemented with Human Keratinocyte Growth Supplement, 100 U/mL penicillin, and 100 μg/mL streptomycin at 37° C. with 5% C02. For experiments, cells were seeded at 70% confluence per well in 100 μL of medium in 96-well plates. […] After 16 hours, medium was removed and replaced with dosing medium.
A 5α-Androstan-17β-ol-3-one (DHT) stock solution was prepared at 1,000× in ethanol. […] Dosing medium was prepared at the time of treatment by serial diluting stock solution into medium. Ethanol concentrations in media never exceeded 0.1%. […] Negative control wells contained 100 μL medium/well with 1 μL of ethanol/mL of medium and an appropriate amount of DMSO. Each plate also contained 1.0 nM DHT with an ARE or without an ARE as a positive control. Cells were incubated 24 hours at 37° C. without CO2.
(§3) To assess for cell viability, cells were first visually examined under a phase-contrast microscope to record cell confluence, morphological changes, and presence of drug crystallization as well as to observe signs of cytotoxity such as, e.g., detachment, vacuolization, membrane degradation, or lack of phase brightness. After microscopic inspection, a Trypan Blue exclusion assay was performed to assess cell viability and cell number for each well. Each well was washed with 0.5 mL volume of PBS. 30 µL of Trypan Blue was added to each well for 5-10 minutes. Total cell number and total viable cell number will be counted from 1 number of fields per well, in triplicate.

androgen receptor (AR) [2] = target: androgen receptor (AR) (Homo sapiens, UniProt P10275); test: MDA-kb2 AR luciferase reporter gene assay (1.0 nM DHT); format: cell-based; details: MDA-kb2, 1.0 nM DHT, 24 hours, read-out: Gene Activity Reduction
Description: This example illustrates how to determine the inhibitory activity of an ARE disclosed herein using a cell-based androgen receptor transcriptional reporter assay using an engineered cell line.
(§1) Each ARE tested was prepared in DMSO. […] Ethanol concentrations in media never exceeded 0.1%.
(§2) To assess ARE-mediated inhibition, an AR luciferase assay was performed. After washing cells with 1×PBS, 20 μL lysis buffer (25 mM Tris/phosphate, 4 mM EGTA, 1% Triton, 10% glycerol, 2 mM DTT) was added per well, incubated for 5 minutes with gentle shaking and store at −80° C. On the day of assay, the plates were thawed to ambient temperature and 80 μL of assay buffer (25 mM glycylglycine, 15 mM MgCl2. 5 mM ATP, 0.1 mg/ml BSA) was added to each well. Plates are then processed on a microplate reader (POLARstar Omega) by injecting 100 μL of 1 mM D-luciferin per well, followed by chemiluminescence measurement of 3 seconds at onset of injection. Luciferase activity was determined, measured, and normalized to Relative Light Units (RLU). AR reporter gene activity reduction values were calculated as follows: AR reporter gene activity=1−(average signal (treatment group)/average signal (treatment group without drug).

[3] = system: normal Human Adult Primary Epidermal Keratinocyte cell line; test: Keratinocyte Cell Viability Assay (Example 11, 72 hours); details: keratinocytes, 72 hours, 0 μM = 100
Description: (§4) For the Keratinocyte assay, normal Human Adult Primary Epidermal Keratinocyte cell line (ATCC PCS-200-011) was maintained in EPIUFE® Medium, with 60 μM calcium (Thermo MEPISOOCA) supplemented with Human Keratinocyte Growth Supplement, 100 U/mL penicillin, and 100 μg/mL streptomycin at 37° C. with 5% C02. For experiments, cells were seeded at 70% confluence per well in 100 μL of medium in 96-well plates. Reverse transfection was done on the cells using Lipofectamine 3000 (Life Technologies) with plasmids according to manufacturer's instructions. Briefly, 0.3 μL transfection reagent per 100 ng DNA were incubated with P3000 reagent and Opti-Mem prior to addition of cells. After 16 hours, medium was removed and replaced with dosing medium.
(§5) Each ARE tested was prepared in DMSO. Dosing medium was prepared at the time of treatment by serial diluting stock solution into medium. Ethanol concentrations in media never exceeded 0.1%. […] Negative control wells contained 100 L medium/well with 1 μL of ethanol/mL of medium and an appropriate amount of DMSO. […] Cells were incubated 72 hours at 37° C. without CO2.

[4] = as above; details: human
Description: as §4, §5

androgen receptor (AR) [5] = target: T1, androgen receptor (AR) (Homo sapiens, UniProt P10275); test: Keratinocyte AR luciferase reporter gene assay (Example 10); format: cell-based; details: keratinocytes, 1.0 nM DHT, 24 hours, read-out: Gene Activity Reduction
T1 construct: human keratinocytes transfected with an AR luciferase reporter gene; endogenous in cells; host or cells: normal human adult primary epidermal keratinocytes (ATCC PCS-200-011)
T1 sequence (P10275 1-920): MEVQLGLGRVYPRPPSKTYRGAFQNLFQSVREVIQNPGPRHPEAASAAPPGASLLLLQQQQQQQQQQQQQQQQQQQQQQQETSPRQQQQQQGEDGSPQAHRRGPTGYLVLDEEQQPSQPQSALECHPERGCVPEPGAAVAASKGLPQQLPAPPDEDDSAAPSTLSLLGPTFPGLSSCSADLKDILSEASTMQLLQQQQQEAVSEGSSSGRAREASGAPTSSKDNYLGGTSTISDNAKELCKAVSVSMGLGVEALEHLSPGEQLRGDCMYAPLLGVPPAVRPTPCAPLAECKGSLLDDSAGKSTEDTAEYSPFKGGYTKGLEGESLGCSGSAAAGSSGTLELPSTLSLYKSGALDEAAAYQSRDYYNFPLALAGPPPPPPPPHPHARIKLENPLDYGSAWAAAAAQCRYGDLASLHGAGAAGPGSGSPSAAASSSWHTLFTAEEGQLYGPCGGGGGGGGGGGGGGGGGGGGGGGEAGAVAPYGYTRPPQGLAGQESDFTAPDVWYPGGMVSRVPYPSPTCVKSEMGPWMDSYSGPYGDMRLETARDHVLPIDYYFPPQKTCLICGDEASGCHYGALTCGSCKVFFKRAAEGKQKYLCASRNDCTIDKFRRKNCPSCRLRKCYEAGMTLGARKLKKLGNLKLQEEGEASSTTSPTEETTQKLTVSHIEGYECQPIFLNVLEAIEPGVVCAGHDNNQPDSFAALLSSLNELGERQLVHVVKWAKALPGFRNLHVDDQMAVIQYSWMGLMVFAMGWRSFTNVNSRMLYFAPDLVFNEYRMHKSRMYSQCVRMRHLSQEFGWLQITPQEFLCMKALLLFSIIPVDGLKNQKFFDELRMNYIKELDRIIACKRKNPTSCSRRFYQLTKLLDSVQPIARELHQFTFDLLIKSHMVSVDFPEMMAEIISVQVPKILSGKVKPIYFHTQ
Description: as §1, §2

androgen receptor (AR) [6] = target: T1, androgen receptor (AR); test: Keratinocyte AR protein level ELISA (Example 10); format: cell-based; details: 24 h, keratinocytes, AR protein level by ELISA, read-out: AR Reduction
Description: as §1
To assess levels of AR, an ELISA was performed.

[7] = system: MDA-kb2 mammary gland breast cancer cell line; test: MDA-kb2 cell viability (Trypan Blue exclusion); details: MDA-kb2, 1.0 nM DHT, 24 hours
Description: For the MDA-kb2 assay, MDA-kb2 mammary gland breast cancer cell line was maintained in L-15 media (Gibco) supplemented with 10% FBS, 100 U/mL penicillin, 100 μg/mL streptomycin, and 0.25 μg/mL amphotericin B at 37° C., without CO2. For experiments, cells were plated at 1.0×10^4 cells (50% confluence) per well in 100 μL of medium in 96-well plates. When cells were attached (after 6 hours), medium was removed and replaced with dosing medium containing 10% charcoal stripped FBS.
A 5α-Androstan-17β-ol-3-one (DHT) stock solution was prepared at 1,000× in ethanol. Each ARE tested was prepared in DMSO. Dosing medium was prepared at the time of treatment by serial diluting stock solution into medium. Ethanol concentrations in media never exceeded 0.1%. […] Negative control wells contained 100 μL medium/well with 1 μL of ethanol/mL of medium and an appropriate amount of DMSO. Each plate also contained 1.0 nM DHT with an ARE or without an ARE as a positive control. Cells were incubated 24 hours at 37° C. without CO2.
as §3

Compound: O=C(CC12CC3CC(CC(C3)C1)C2)NCCOCCOCC(=O)N1CCN(c2ccc(OC[C@H]3CO[C@](Cn4ccnc4)(c4ccc(Cl)cc4Cl)O3)cc2)CC1 [SPG-005]
- Cell Viability ([1]; 0.1 μM): 94%
- Cell Viability ([1]; 1.0 μM): 92%
- Cell Viability ([1]; 3.0 μM): 93%
- Cell Viability ([1]; 10 μM): 94%
- inhibition at 0.1 µM (androgen receptor (AR) [2]; 0.1 μM): 9%
- inhibition at 1 µM (androgen receptor (AR) [2]; 1.0 μM): 14%
- inhibition at 3 µM (androgen receptor (AR) [2]; 3.0 μM): 18%
- inhibition at 10 µM (androgen receptor (AR) [2]; 10 μM): 80%
- Cell Viability ([3]; 0.62 μM): 77.01 ± 0.64
- Cell Viability ([3]; 1.85 μM): 62.57 ± 2.06
- Cell Viability ([3]; 5.56 μM): 1.98 ± 8.39
- Cell Viability ([3]; 16.67 μM): 0.11 ± 1.77
- Cell Viability ([3]; 50 μM): 0.09 ± 6.41
- Cell Viability ([3]; […]): 93.72 ± 1.69
- IC50 at 72 h [4]: 2000 nM
- inhibition at 0.1 µM (androgen receptor (AR) [5]; 0.1 μM): 21%
- inhibition at 1 µM (androgen receptor (AR) [5]; 1.0 μM): 29%
- inhibition at 3 µM (androgen receptor (AR) [5]; 3.0 μM): 31%
- inhibition at 10 µM (androgen receptor (AR) [5]; 10 μM): 90%
- inhibition at 0.1 µM (androgen receptor (AR) [6]; 0.1 μM): 12%
- inhibition at 1 µM (androgen receptor (AR) [6]; 1.0 μM): 19%
- inhibition at 3 µM (androgen receptor (AR) [6]; 3.0 μM): 23%
- inhibition at 10 µM (androgen receptor (AR) [6]; 10 μM): 65%
- Cell Viability ([7]; 0.1 μM): 98%
- Cell Viability ([7]; 1.0 μM): 98%
- Cell Viability ([7]; 3.0 μM): 98%
- Cell Viability ([7]; 10 μM): 98%

— patent US12319681B2, “Tripartite androgen receptor eliminators, methods and uses thereof” (SPG Therapeutics, Inc., priority 2017, dated 2025)
